Data from article PMC7799360, “Reprogramming immunosuppressive myeloid cells facilitates immunotherapy for colorectal cancer” (EMBO Molecular Medicine, 2020).
pIC50: −log10 of the molar value.

Assays:
human EP1 = target: T1, human EP1 (Homo sapiens, UniProt P34995); assay: PGE2-induced calcium flux assay in CHO-Gα16 cells; assay type: cell-based
T1 construct: host or cells: CHO-Gα16

ADRB1 = target: T2, ADRB1 (Homo sapiens, UniProt P08588); assay: GPCR calcium flux assay; assay type: cell-based
T2 construct: Pharmaron (Beijing, China) performed the assay

CHRM1 = target: T3, CHRM1 (Homo sapiens, UniProt P11229); assay: GPCR calcium flux assay; assay type: cell-based
T3 construct: Pharmaron (Beijing, China), contract laboratory

CHRM2 = target: T4, CHRM2 (Homo sapiens, UniProt P08172); assay: GPCR calcium flux assay; assay type: cell-based
T4 construct: Pharmaron (Beijing, China), contract laboratory

HRH1 = target: T5, HRH1 (Homo sapiens, UniProt P35367); assay: GPCR calcium flux assay; assay type: cell-based
T5 construct: Pharmaron (Beijing, China), contract laboratory

OPRD1 = target: T6, OPRD1 (Homo sapiens, UniProt P41143); assay: GPCR calcium flux assay; assay type: cell-based
T6 construct: Pharmaron (Beijing, China), contract laboratory

OPRM1 = target: T7, OPRM1 (Homo sapiens, UniProt P35372); assay: GPCR calcium flux assay; assay type: cell-based
T7 construct: Pharmaron (Beijing, China), contract laboratory

[1] = 14-day repeat-dose toxicity study in Sprague Dawley rats; assay type: in vivo; conditions: for Nasal cavity: Normal: animals normal/examined
Description: (three males and three females). […]
orally administrated once daily for 14 days. Abnormal behaviors and mortality
were observed every day and b ody weight was recorded every three days.
Animals were sacrificed on day 15, and blood parameters and organ
morphology were recorded. […]

CT26 tumors = CT26 tumors in BALB/c nude mice; assay type: in vivo, mouse; conditions: 75 mg/kg
Description: (§1) Syngeneic mouse tumor‐bearing models were established as described previously (Tan et al., 2018). Tumor cells (5 × 10^5 ‐ 2 × 10^6) were suspended in 100 μl PBS and implanted subcutaneously into the flank of mice. Mice were randomized into different treatment groups when tumor volumes reached 100‐200 mm^3. V = L×W^2 × 0.52, where L is the longest diameter, and W is the shortest diameter. Tumor size and body weight were recorded every second or third day. Mouse survival was analyzed using the Kaplan–Meier method.
(§2) Single agent or combination treatment was designed as follows: TP‐16 (37.5, 75, 150 mg/kg) or celecoxib (100 mg/kg) was formulated in 0.5% carboxymethylcellulose sodium (CMC‐Na, Sangon Biotech, Shanghai, China) and administered via oral gavage daily. In vivo anti‐PD1 antibody (clone RMP1‐14, BioXCell, West Lebanon, NH, USA) and rat IgG2a isotype control (clone 2A3, BioXCell) were diluted in sterile PBS and administered intraperitoneally at a dose of 50 μg twice weekly.

MC38 tumors = assay: MC38 colorectal cancer model in C57BL/6 mice; assay type: in vivo, mouse; conditions: MC38, 75 mg/kg p.o. daily
Description: as §1, §2

4T1 tumors = assay: 4T1 breast cancer model in BALB/c mice; assay type: in vivo, mouse; conditions: 4T1, BALB/c mice, 75 mg/kg p.o. daily
Description: as §1, §2

STAT3 and AKT signaling = assay: Western blot of p-STAT3 and p-AKT in bone marrow-derived macrophages; assay type: cell-based, mouse; conditions: BMMs, IL-4 20 ng/ml + 100 nM PGE2, 10 μM TP-16
Description: Briefly, cells and tumor tissues were lysed with radio immunoprecipitation assay buffer containing phosphatase and protease inhibitor cocktail (MedChemExpress, Monmouth Junction, NJ, USA). A total of 30‐80 μg of normalized total proteins from lysates were run on 6‐10% SDS‐polyacrylamide gels. The proteins transferred from gels to nitrocellulose membranes (Millipore, Billerica, MA, USA) were incubated with primary antibodies overnight at 4°C, washed, and incubated with secondary antibodies for 1 h at room temperature. Visual signals were detected using the LI‐COR Odyssey Infrared Imaging System (LI‐COR Biosciences, Lincoln, NE). Mouse protein primary antibodies used for Western blotting were listed as follows: COX2 (1:1000 dilution, 12282, CST), p‐Stat3 (1:2000 dilution, Tyr^705, 9145, CST), Stat3 (1:1000 dilution, 9139, CST), p‐Akt (1:2000 dilution, Ser^473, 4060, CST), Akt (1:1000 dilution, 9272, CST), Arg‐1 (1:100 dilution, 16001, Proteintech, Rosemont, IL), and GAPDH (1:10000 dilution, Ab181602, Abcam).

CB1 = CB1 (Homo sapiens, UniProt P21554); assay: LANCE Ultra cAMP assay
[2] = female, Sprague-Dawley, rat, in vivo, 100 mg/kg/day, 14 days
[3] = male, Sprague-Dawley, rat, in vivo, 100 mg/kg/day, 14 days

T5 sequence (P35367 whole entry, species assumed): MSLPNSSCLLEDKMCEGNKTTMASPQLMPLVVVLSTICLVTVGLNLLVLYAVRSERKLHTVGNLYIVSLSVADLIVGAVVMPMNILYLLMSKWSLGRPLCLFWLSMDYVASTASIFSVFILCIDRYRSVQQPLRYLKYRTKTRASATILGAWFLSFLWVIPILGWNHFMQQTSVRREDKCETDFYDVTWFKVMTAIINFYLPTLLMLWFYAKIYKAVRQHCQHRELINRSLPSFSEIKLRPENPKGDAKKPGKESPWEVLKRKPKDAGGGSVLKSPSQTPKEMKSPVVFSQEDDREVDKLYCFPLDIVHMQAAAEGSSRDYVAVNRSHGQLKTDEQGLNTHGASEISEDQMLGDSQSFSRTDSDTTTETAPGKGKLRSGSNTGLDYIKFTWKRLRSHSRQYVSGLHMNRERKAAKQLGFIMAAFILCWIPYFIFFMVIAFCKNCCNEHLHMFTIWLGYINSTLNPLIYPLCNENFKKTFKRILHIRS
T3 sequence (P11229 whole entry, species assumed): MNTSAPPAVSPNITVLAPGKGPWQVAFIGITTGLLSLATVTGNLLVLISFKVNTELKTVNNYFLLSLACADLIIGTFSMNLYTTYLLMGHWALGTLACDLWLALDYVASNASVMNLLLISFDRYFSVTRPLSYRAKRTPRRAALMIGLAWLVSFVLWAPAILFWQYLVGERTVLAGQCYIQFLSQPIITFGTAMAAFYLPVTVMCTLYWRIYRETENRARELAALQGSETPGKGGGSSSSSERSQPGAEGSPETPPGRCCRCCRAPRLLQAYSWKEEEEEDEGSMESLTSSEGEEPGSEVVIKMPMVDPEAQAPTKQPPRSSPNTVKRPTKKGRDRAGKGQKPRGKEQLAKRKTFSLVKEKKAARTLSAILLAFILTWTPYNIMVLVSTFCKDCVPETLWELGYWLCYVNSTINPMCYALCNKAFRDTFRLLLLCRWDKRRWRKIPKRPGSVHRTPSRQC
T4 sequence (P08172 whole entry, species assumed): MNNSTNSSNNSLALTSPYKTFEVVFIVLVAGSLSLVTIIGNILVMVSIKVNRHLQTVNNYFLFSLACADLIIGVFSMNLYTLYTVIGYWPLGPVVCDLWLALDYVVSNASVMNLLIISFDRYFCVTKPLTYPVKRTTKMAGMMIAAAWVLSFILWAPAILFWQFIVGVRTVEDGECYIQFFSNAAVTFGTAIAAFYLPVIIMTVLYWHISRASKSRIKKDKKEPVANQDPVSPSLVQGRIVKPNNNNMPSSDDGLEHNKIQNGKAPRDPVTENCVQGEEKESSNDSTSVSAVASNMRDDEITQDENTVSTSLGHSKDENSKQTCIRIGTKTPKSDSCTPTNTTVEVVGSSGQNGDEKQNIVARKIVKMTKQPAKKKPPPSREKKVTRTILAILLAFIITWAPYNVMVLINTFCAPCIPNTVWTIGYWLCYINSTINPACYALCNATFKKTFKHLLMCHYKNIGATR
T7 sequence (P35372 whole entry, species assumed): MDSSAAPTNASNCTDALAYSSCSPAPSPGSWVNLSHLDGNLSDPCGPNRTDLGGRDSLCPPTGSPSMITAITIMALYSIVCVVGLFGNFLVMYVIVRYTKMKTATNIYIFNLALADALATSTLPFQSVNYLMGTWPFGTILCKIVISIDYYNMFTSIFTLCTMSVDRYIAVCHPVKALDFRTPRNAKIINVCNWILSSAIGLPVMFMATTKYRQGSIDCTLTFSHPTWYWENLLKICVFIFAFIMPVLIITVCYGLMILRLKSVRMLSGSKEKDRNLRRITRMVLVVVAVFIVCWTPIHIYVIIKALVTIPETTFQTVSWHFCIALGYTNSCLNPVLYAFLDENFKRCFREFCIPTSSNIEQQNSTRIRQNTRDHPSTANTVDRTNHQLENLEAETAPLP
T1 sequence (P34995 whole entry): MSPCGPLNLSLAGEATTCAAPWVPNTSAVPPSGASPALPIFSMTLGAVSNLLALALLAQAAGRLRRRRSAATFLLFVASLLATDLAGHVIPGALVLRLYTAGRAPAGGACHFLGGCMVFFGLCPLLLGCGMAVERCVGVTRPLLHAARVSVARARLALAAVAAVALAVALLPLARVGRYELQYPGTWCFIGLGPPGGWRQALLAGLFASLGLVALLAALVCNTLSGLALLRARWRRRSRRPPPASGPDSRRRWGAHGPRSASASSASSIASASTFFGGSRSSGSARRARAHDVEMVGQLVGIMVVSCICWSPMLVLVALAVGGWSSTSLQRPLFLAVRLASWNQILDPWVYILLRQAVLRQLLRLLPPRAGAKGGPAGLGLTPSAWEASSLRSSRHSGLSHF
T2 sequence (P08588 whole entry, species assumed): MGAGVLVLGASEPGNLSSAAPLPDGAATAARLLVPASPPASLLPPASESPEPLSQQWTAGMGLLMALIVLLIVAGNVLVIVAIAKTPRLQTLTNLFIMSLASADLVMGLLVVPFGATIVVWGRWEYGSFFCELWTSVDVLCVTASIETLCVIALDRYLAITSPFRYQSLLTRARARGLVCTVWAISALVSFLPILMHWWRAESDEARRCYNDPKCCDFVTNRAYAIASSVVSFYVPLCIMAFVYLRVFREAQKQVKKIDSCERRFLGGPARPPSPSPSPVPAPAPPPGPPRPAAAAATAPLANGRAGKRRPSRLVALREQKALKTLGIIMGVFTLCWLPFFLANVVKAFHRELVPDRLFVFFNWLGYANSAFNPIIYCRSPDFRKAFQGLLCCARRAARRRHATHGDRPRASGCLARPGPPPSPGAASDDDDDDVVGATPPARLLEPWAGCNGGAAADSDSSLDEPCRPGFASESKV
T6 sequence (P41143 whole entry, species assumed): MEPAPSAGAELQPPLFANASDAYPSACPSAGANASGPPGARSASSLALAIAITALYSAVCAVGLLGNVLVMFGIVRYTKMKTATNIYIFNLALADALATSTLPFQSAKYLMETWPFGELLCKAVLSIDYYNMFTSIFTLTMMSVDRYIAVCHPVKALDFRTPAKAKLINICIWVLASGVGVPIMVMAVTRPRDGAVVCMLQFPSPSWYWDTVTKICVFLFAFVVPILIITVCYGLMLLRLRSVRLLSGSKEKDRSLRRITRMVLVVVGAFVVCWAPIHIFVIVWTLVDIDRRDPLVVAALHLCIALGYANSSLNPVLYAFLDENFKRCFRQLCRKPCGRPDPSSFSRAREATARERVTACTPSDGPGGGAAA
Sequence of CB1 (P21554 whole entry, species assumed): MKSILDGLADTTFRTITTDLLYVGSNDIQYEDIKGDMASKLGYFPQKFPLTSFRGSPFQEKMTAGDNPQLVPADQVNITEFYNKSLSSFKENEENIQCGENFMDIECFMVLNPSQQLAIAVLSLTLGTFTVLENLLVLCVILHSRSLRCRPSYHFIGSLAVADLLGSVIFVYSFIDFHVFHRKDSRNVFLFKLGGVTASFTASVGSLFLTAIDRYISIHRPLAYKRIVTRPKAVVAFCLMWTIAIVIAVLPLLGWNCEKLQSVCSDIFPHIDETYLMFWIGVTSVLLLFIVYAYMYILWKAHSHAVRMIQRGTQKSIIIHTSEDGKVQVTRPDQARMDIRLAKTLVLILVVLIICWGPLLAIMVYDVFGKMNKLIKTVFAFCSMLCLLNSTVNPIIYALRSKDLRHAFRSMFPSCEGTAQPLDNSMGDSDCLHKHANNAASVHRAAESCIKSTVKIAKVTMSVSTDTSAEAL

C[C@H](NC(=O)c1c(Cc2ccc(F)cc2)sc2c1CCOC2)c1ccc(C(=O)O)cc1 [TP-16]
pIC50 (human EP1): < 5.00
pIC50 (ADRB1): < 5.00
pIC50 (CHRM1): < 5.00
pIC50 (CHRM2): < 5.00
pIC50 (HRH1): < 5.00
pIC50 (OPRD1): < 5.00
pIC50 (OPRM1): < 5.00
Nasal cavity: Normal ([1]; female rats, 100 mg/kg/day, 14 days): 3/3
Brain: Normal [1, 2]: 3/3
Cervical lymph node: Normal [1, 2]: 3/3
Colon: Normal [1, 2]: 3/3
Duodenum: Normal [1, 2]: 3/3
Esophagus: Normal [1, 2]: 3/3
Eye: Normal [1, 2]: 3/3
Femur/Bone marrow: Normal [1, 2]: 3/3
Harderian gland: Normal [1, 2]: 3/3
Heart: Normal [1, 2]: 3/3
Ileum: Normal [1, 2]: 3/3
Jejunum: Normal [1, 2]: 3/3
Kidney: Normal [1, 2]: 3/3
Liver: Normal [1, 2]: 3/3
Lung: Normal [1, 2]: 3/3
Mesenteric lymph node: Normal [1, 2]: 3/3
Ovary: Normal [1, 2]: 3/3
Pancreas: Normal [1, 2]: 3/3
Parathyroid gland: Normal [1, 2]: 3/3
Pituitary gland: Normal [1, 2]: 3/3
Preputial/Clitoral gland: Normal [1, 2]: 3/3
Rectum: Normal [1, 2]: 3/3
Salivary gland: Normal [1, 2]: 3/3
Skin/ Mammary gland: Normal [1, 2]: 3/3
Spleen: Normal [1, 2]: 3/3
Stomach: Normal [1, 2]: 3/3
Testis: Normal [1, 2]: 3/3
Thymus: Normal [1, 2]: 3/3
Thyroid gland: Normal [1, 2]: 3/3
Trachea: Normal [1, 2]: 3/3
Urinary bladder: Normal [1, 2]: 3/3
Uterus: Normal [1, 2]: 3/3
Vagina: Normal [1, 2]: 3/3
Nasal cavity: Normal ([1]; male rats, 100 mg/kg/day, 14 days): 3/3
Brain: Normal [1, 3]: 3/3
Cervical lymph node: Normal [1, 3]: 3/3
Colon: Normal [1, 3]: 3/3
Duodenum: Normal [1, 3]: 3/3
Epididymis: Normal [1, 3]: 3/3
Esophagus: Normal [1, 3]: 3/3
Eye: Normal [1, 3]: 3/3
Femur/Bone marrow: Normal [1, 3]: 3/3
Harderian gland: Normal [1, 3]: 3/3
Heart: Normal [1, 3]: 3/3
Ileum: Normal [1, 3]: 3/3
Jejunum: Normal [1, 3]: 3/3
Kidney: Normal [1, 3]: 3/3
Liver: Normal [1, 3]: 3/3
Lung: Normal [1, 3]: 3/3
Mesenteric lymph node: Normal [1, 3]: 3/3
Pancreas: Normal [1, 3]: 3/3
Parathyroid gland: Normal [1, 3]: 3/3
Pituitary gland: Normal [1, 3]: 3/3
Preputial/Clitoral gland: Normal [1, 3]: 3/3
Prostate: Normal [1, 3]: 3/3
Rectum: Normal [1, 3]: 3/3
Salivary gland: Normal [1, 3]: 3/3
Seminal vesicle: Normal [1, 3]: 3/3
Skin/ Mammary gland: Normal [1, 3]: 3/3
Spleen: Normal [1, 3]: 3/3
Stomach: Normal [1, 3]: 3/3
Testis: Normal [1, 3]: 3/3
Thymus: Normal [1, 3]: 3/3
Thyroid gland: Normal [1, 3]: 3/3
Trachea: Normal [1, 3]: 3/3
Urinary bladder: Normal [1, 3]: 3/3
body weight during 14-day treatment ([1]; rat, in vivo, po, 100 mg/kg): without statistically significant weight loss
hematological analysis, overall finding ([1]; rat, in vivo, po, 100 mg/kg): no adverse changes
organ morphology, overall finding ([1]; rat, in vivo, po, 100 mg/kg): no abnormalities
anti-tumor efficacy in BALB/c nude mice (CT26 tumors): lost
%TGI (MC38 tumors): 50.6%
%TGI (4T1 tumors): 27.3%
IL-4/PGE2-induced phosphorylation of STAT3 and AKT (STAT3 and AKT signaling): significantly reversed
pIC50 (CB1): < 5.00
